Source: article PMC2219267 (The Journal of General Physiology, 1996)
Like-named read-outs stand apart in the source and are kept apart here.

Target: T1, band 3 (Homo sapiens, UniProt P02730)
T1 sequence (P02730 1-911): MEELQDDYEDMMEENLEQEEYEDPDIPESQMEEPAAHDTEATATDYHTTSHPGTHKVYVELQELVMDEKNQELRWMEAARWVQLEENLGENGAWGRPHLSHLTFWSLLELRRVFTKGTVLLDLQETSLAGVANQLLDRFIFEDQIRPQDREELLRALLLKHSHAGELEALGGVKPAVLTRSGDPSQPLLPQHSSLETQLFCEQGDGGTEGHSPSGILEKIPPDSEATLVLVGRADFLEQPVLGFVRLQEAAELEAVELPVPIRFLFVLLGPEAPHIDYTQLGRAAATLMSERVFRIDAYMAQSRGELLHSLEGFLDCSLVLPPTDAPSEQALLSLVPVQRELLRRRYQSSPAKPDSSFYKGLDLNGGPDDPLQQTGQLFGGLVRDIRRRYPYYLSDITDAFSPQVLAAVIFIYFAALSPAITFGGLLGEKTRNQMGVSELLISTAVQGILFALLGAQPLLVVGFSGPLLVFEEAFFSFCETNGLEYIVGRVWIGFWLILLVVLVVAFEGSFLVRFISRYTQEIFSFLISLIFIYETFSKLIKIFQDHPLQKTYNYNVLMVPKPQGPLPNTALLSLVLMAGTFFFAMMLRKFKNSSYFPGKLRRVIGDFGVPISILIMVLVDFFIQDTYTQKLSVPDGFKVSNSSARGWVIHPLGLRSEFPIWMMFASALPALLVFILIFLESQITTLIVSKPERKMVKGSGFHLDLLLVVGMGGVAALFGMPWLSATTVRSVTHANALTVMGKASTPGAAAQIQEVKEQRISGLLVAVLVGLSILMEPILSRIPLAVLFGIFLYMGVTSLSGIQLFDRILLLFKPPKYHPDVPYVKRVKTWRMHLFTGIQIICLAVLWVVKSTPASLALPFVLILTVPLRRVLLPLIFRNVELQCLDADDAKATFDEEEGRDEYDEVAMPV
Assay: 36Cl exchange flux inhibition in red blood cells, Dixon plots
Type: cell-based
Settings: for Kd: read-out: Average KoI (SE)

[1] = exp 86, pHo 11.6, sucrose, Clo 30 mM
[2] = exp 86, pHo 11.6, sucrose, Clo 200 mM
[3] = exp N223, pHo 7.2, citrate, Clo 1.05 mM
[4] = exp N223, pHo 7.2, citrate, Clo 2.07 mM
[5] = exp N223, pHo 7.2, citrate, Clo 145 mM
[6] = exp N225, pHo 7.2, citrate, Clo 2.07 mM
[7] = exp N225, pHo 7.2, citrate, Clo 4.14 mM
[8] = exp N225, pHo 7.2, citrate, Clo 130 mM

- ID50 for iodide in the medium with low Cl- concentration (exp 82, pHo 10.6, 0°C, CHES, Cli 138 mM, low Clo 1.7 mM): 19.8 mM
- ID50 for iodide in the medium with low Cl- concentration (exp 83, pHo 10, 0°C, CHES, Cli 129 mM, low Clo 1.7 mM): 6.58 mM
- ID50 for iodide in the medium with low Cl- concentration (exp 84, pHo 8.0, 0°C, Hepes, Cli 130 mM, low Clo 0.9 mM): 2.05 mM
- ID50 for iodide in the medium with low Cl- concentration (exp 85, pHo 7.2, 0°C, Hepes, Cli 133 mM, low Clo 0.3 mM): 1.80 mM
- ID50 for iodide in the medium with low Cl- concentration (exp 86, pHo 11.6, 0°C, CAPS, Cli 295 mM, low Clo 30 mM): 63.3 mM
- DS·Clo (Dixon slope times [Clo]) [1]: 0.2098
- Dixon slope (DS) for Io inhibition of Cl- exchange [1]: 0.00699
- High/low: DS·Clo at the highest [Clo] divided by that at the given [Clo] [1]: 1.12
- DS·Clo (Dixon slope times [Clo]) [2]: 0.2354
- Dixon slope (DS) for Io inhibition of Cl- exchange [2]: 0.00118
- ID50 for iodide in the medium with low Cl- concentration (exp 86, pHo 12.4, 0°C, CAPS, Cli 295 mM, low Clo 30 mM): 88.5 mM
- DS·Clo (Dixon slope times [Clo]) (exp 86, pHo 12.4, Clo 30 mM): 0.3617
- Dixon slope (DS) for Io inhibition of Cl- exchange (exp 86, pHo 12.4, Clo 30 mM): 0.01206
- High/low: DS·Clo at the highest [Clo] divided by that at the given [Clo] (exp 86, pHo 12.4, Clo 30 mM): 1.08
- DS·Clo (Dixon slope times [Clo]) (exp 86, pHo 12.4, Clo 200 mM): 0.3918
- Dixon slope (DS) for Io inhibition of Cl- exchange (exp 86, pHo 12.4, Clo 200 mM): 0.001959
- ID50 for iodide in the medium with low Cl- concentration (exp 87, pHo 11.9, 0°C, CAPS, Cli 294 mM, low Clo 30 mM): 83.8 mM
- ID50 for iodide in the medium with low Cl- concentration (exp 87, pHo 12.4, 0°C, CAPS, Cli 294 mM, low Clo 30 mM): 92.5 mM
- DS·Clo (Dixon slope times [Clo]) (exp 87, pHo 12.4, Clo 30 mM): 0.3492
- Dixon slope (DS) for Io inhibition of Cl- exchange (exp 87, pHo 12.4, Clo 30 mM): 0.01164
- High/low: DS·Clo at the highest [Clo] divided by that at the given [Clo] (exp 87, pHo 12.4, Clo 30 mM): 0.81
- DS·Clo (Dixon slope times [Clo]) (exp 87, pHo 12.4, Clo 200 mM): 0.2824
- Dixon slope (DS) for Io inhibition of Cl- exchange (exp 87, pHo 12.4, Clo 200 mM): 0.001412
- ID50 for iodide in the medium with low Cl- concentration (exp 89, pHo 11.9, 0°C, CAPS, Cli 304 mM, low Clo 30 mM): 91.8 mM
- ID50 for iodide in the medium with low Cl- concentration (exp 89, pHo 12, 0°C, No buffer, Cli 304 mM, low Clo 30 mM): 128.5 mM
- DS·Clo (Dixon slope times [Clo]) [3]: 0.0854
- Dixon slope (DS) for Io inhibition of Cl- exchange [3]: 0.081
- High/low: DS·Clo at the highest [Clo] divided by that at the given [Clo] [3]: 3.96
- DS·Clo (Dixon slope times [Clo]) [4]: 0.1048
- Dixon slope (DS) for Io inhibition of Cl- exchange [4]: 0.0506
- High/low: DS·Clo at the highest [Clo] divided by that at the given [Clo] [4]: 3.22
- DS·Clo (Dixon slope times [Clo]) [5]: 0.338
- Dixon slope (DS) for Io inhibition of Cl- exchange [5]: 0.00233
- DS·Clo (Dixon slope times [Clo]) [6]: 0.0724
- Dixon slope (DS) for Io inhibition of Cl- exchange [6]: 0.0349
- High/low: DS·Clo at the highest [Clo] divided by that at the given [Clo] [6]: 3.66
- DS·Clo (Dixon slope times [Clo]) [7]: 0.0907
- Dixon slope (DS) for Io inhibition of Cl- exchange [7]: 0.0219
- High/low: DS·Clo at the highest [Clo] divided by that at the given [Clo] [7]: 2.92
- DS·Clo (Dixon slope times [Clo]) [8]: 0.2652
- Dixon slope (DS) for Io inhibition of Cl- exchange [8]: 0.00204
- 1/R, ratio of dissociation constants alkaline/neutral state (our value): 69
- apparent ID50 for I- as an inhibitor of Cl- exchange (pH 10.6, 1.65 mM [Clo]): 23.6 ± 2.1 mM
- y intercept of ID50 for Io vs [Clo] (should give KoI) (pHi and pHo 7.2, 0°C, Cli ~150 mM, media with 5 mM Hepes, Fig. 5): 2.0 ± 0.2 mM
- y intercept of Dixon slope for Io inhibition vs 1/[Clo] (pHo 7.2, 25 mM K3citrate plus sucrose replacing Cl-, Fig. 4B): 0.0017 kg Hb·s·mmol-1·mM-1
- y intercept of Dixon slope for Io inhibition vs 1/[Clo] (pHo 7.2, sucrose replacing Clo, Fig. 4A): 0.006 kg Hb·s·mmol-1·mM-1
- Kd (pHo 7.2, 0°C): 0.83 mM
- Kd (pHo 8.0, 0°C): 0.45 mM
- Kd (pHo 8.5, 0°C): 1.01 mM
- Kd (pHo 8.66, 0°C): 1.26 mM
- Kd (pHo 9.2, 0°C): 2.6 mM
- Kd (pHo 9.9, 0°C): 5.63 mM
- Kd (pHo 10, 0°C): 6.48 mM
- Kd (pHo 10.6, 0°C): 18.4 mM
- Kd (pHo 10.7, 0°C): 16.4 mM
- Kd (pHo 11.6, 0°C): 35.8 mM
- Kd (pHo 11.9, 0°C): 75.6 mM
- Kd (pHo 12.4, 0°C): 73.4 mM
- R = K++I/K+I, ratio of I- dissociation constants for neutral and alkaline forms (two-titratable-site fit to KoI data): 0.0145
Compound: [I-].[K+] [iodide, potassium iodide]
